Source: patent publication US20140206678A1, “INHIBITORS OF MTOR KINASE AS ANTI -VIRAL AGENT” (KADMON CORPORATION, LLC, priority 2011, published 2014)

Key:
4EBP1 = 4EBP1 phosphorylation in HSV-1-infected MEFs (Western blot); format: cell-based, mouse; conditions: 8 hpi, 3 PFU/cell
Protocol: FIG. 8. Rapamycin-resistant mTOR activity is required for lytic replication by representative alpha- and gamma-herpesviruses. (A) Confluent serum-starved MEFs were infected at a multiplicity of 0.05 PFU/cell with HSV-1 or γHV68. The amount of virus in cell-free supernatants was determined by the TCID50 method at 72 hpi for HSV-1 (left) and at 6 days post infection for γHV68 (right). Black bars represent vehicle-treated samples (N) (DMSO), gray bars represent rapamycin-treated samples (R) (20 nM), and white bars represent Torin1-treated samples (T) (250 nM). The error bars represent the standard errors of the means from at least two independent experiments. (B) Confluent MEF monolayers were infected with HSV-1 at a multiplicity of 3 PFU/cell. Infected cell lysates were harvested at 8 hpi, and equal amounts of protein were analyzed by Western blotting. (C) WT or 4EBP1-null MEFs were infected with HSV-1 at a multiplicity of 0.05 PFU/cell. The amount of cell-free virus present in the supernatant at 72 hpi was quantified by the TCID50 method. The error bars represent the standard errors of the means from two independent experiments.

HSV-1 = HSV-1 replication in MEFs, TCID50; format: cell-based, herpes simplex virus type 1; conditions: 72 hpi
eIF4F complex and 4EBP1 = assay: m7GTP-Sepharose cap-analog binding (eIF4F complex) in HCMV-infected fibroblasts; format: cell-based, human; conditions: rapamycin 20 nM, Torin1 250 nM
Protocol: FIG. 4. Rapamycin-resistant mTOR activity is required for 4EBP1 phosphorylation and eIF4F complex integrity during HCMV infection. Serum-starved confluent human fibroblasts were infected with HCMV at a multiplicity of 3 PFU/cell. […] (A) At 48 hpi the phosphorylation status of mTORC1 targets was assessed by Western blot assay by using antibodies to phosphorylated targets (4EBP1-PT^37/46 and rpS6-PS^235/6) and total proteins. Tubulin was assayed as a loading control. (B) Same as above (A) except that cells were harvested at the indicated times. (C and D) After mock infection (M) or infection with HCMV (WT) at a multiplicity of 3 PFU/cell, cultures were harvested at the indicated times. Equivalent amounts of protein from each sample were incubated with m^7GTP-Sepharose, and the isolated protein complexes were analyzed by Western blotting using the indicated antibodies to the eIF4F complex and 4EBP1. In all cases the results are representative of at least two independent experiments. lys, lysate.
The phosphorylation status of 4EBP1 regulates cap-dependent protein translation. Hypophosphorylated 4EBP1 binds to eIF4E and inhibits the formation of the eIF4F complex, while the phosphorylation of 4EBP1 inhibits its interaction with eIF4E. […]

cells = conditions: concentrations of up to 500 nM; previous reports; cited from earlier work
[1] = test system: HCMV proteins IE1, pUL44, pUL99; assay: Western blot of HCMV proteins in infected fibroblasts; format: cell-based, human cytomegalovirus; conditions: 6 to 96 hpi; rapamycin 20 nM, Torin1 250 nM; 3 PFU/cell
Protocol: FIG. 2. […] Serum-starved confluent fibroblasts were infected with HCMV at a multiplicity of 3 PFU/cell. […] Control cultures received the vehicle in which Torin1 was dissolved (NT). At 2 hpi cells were harvested, and cell-associated viral DNA was quantified by real-time PCR analysis. Error bars represent the standard errors of the means from two independent experiments performed in duplicate. […] The level of IE1 was determined at 6 hpi by a Western blot assay using an IE1-specific monoclonal antibody. The image is representative of two independent experiments. […] The expression of a GFP marker gene present in the viral genome was monitored at 24 h after infection in the presence or absence of drug.
FIG. 3. […] Cells were harvested at the indicated times, and the accumulation of the indicated proteins was analyzed by Western blotting. […] At the indicated times DNA was isolated, and viral DNA was quantified by qPCR. Equivalent amounts of DNA were analyzed for each sample, and the results are normalized to the level of actin DNA per sample. […] At the indicated times the amount of UL99 RNA was determined by qPCR, and the results are normalized to the amount of actin RNA in each sample. […]
Antibodies to pUL99 have been described previously (Silva, et al. J. Virol. (2003) 77:10594-10605). In addition, accumulation of HCMV DNA was monitored following infection using the methods described above.

For `CCC(=O)N1CCN(c2ccc(-n3c(=O)ccc4cnc5ccc(-c6cnc7ccccc7c6)cc5c43)cc2C(F)(F)F)CC1` [Torin1], the “phosphorylation of 4EBP1 during HSV-1 infection” value (4EBP1) was “inhibited”, the HSV-1 replication (HSV-1; MEFs, rapamycin 20 nM, Torin1 250 nM, 0.05 PFU/cell) was “inhibited” and the “production of HSV-1” value (HSV-1; cells lacking 4EBP1) was “failed to inhibit”. For the same compound, the “association of 4EBP1 with m7GTP-Sepharose cap analog” value (eIF4F complex and 4EBP1) was “substantially increased association”, the “association of eIF4G and eIF4A with the cap analog” value (eIF4F complex and 4EBP1) was “reduced association” and the cell killing (cells) was “does not kill cells”. The “accumulation of immediate-early protein IE1” value [1] was “to a limited extent” and the “accumulation of late protein pUL99” value [1] was “dramatically reduced”.
